Test results taken from ChEMBL document CHEMBL5030564, “Multifunctional Antibiotic-Host Defense Peptide Conjugate Kills Bacteria, Eradicates Biofilms, and Modulates the Innate Immune Response” (J Med Chem, 2021).
Converted amounts (≈) assume the structure as drawn. The source made the active and inactive calls. The rule behind the calls is not given here. Residues, ends and D or L forms follow the SMILES beside them.

Tests used:
[1] = Toxicity in Staphylococcus epidermidis infected CD-1 mouse assessed as reduction in bacterial load at 2.5 mg/kg, ILES after 3 days; format: organism-based; settings: in vivo, other, 72 h, time 3 day
[2] = tested on: Staphylococcus epidermidis; assay: Antibiofilm activity against Staphylococcus epidermidis ATCC14990 assessed as biofilm eradication concentration by Calgary biofilm device assay; format: functional
Staphylococcus aureus [3] = assay: Antimicrobial activity against methicillin-resistant Staphylococcus aureus SAP 0017 assessed as inhibition of bacterial growth incubated for 18 to 20 hrs by broth microdilution assay; format: functional; settings: time 18-20 hrs
Enterococcus faecium [4] = assay: Antimicrobial activity against Enterococcus faecium assessed as inhibition of bacterial growth incubated for 18 to 20 hrs by broth microdilution assay; format: functional; settings: time 18-20 hrs
Staphylococcus aureus [5] = assay: Antibiofilm activity against methicillin-resistant Staphylococcus aureus USA300 LAC assessed as killing biofilm cells at 16 ug/ml incubated for 4 hrs after SYTO9/PI staining by confocal microscopy; format: functional, MRSA USA300 LAC; settings: dose 16 µg/ml
Enterococcus faecium [6] = assay: Antibiofilm activity against Enterococcus faecium assessed as inhibition of CV-staining/biomass formation measured after overnight incubation by biofilm inhibition assay; format: functional
[7] = tested on: Staphylococcus epidermidis; assay: Antibiofilm activity against Staphylococcus epidermidis ATCC14990 assessed as inhibition of CV-staining/biomass formation measured after overnight incubation by biofilm inhibition assay; format: functional
Staphylococcus aureus [8] = assay: Antibiofilm activity against methicillin resistant Staphylococcus aureus-lux biofilm in N/TERT-based epidermal model assessed as reduction in luminescence treated at 300 ug/ml topically incubated for 4 hrs by ChemiDoc imaging system; format: functional, organism-based; settings: dose 300.0 µg/ml
[9] = tested on: Staphylococcus epidermidis; assay: Antimicrobial activity against Staphylococcus epidermidis ATCC14990 assessed as inhibition of bacterial growth incubated for 18 to 20 hrs by broth microdilution assay; format: functional; settings: time 18-20 hrs
[10] = (§1) Immunomodulatory activity in PBMC (unknown origin) assessed as reduction in LPS-induced IL-1beta level by ELISA; format: functional; set-up: scale not given: the % may be the effect or the level left
Staphylococcus aureus [11] = assay: Antibiofilm activity against methicillin resistant Staphylococcus aureus in N/TERT-based epidermal model assessed as reduction in bacterial clusters by H&E staining based histological analysis; format: functional, organism-based
Enterococcus faecium [12] = assay: Antibiofilm activity against Enterococcus faecium assessed as biofilm eradication concentration by Calgary biofilm device assay; format: functional
Staphylococcus aureus [13] = assay: Antimicrobial activity against methicillin-resistant Staphylococcus aureus USA300 LAC assessed as inhibition of bacterial growth incubated for 18 to 20 hrs by broth microdilution assay; format: functional; settings: MRSA USA300 LAC, time 18-20 hrs
Staphylococcus aureus [14] = assay: Antibiofilm activity against methicillin-resistant Staphylococcus aureus USA300 LAC assessed as inhibition of CV-staining/biomass formation measured after overnight incubation by biofilm inhibition assay; format: functional, MRSA USA300 LAC
[15] = Immunomodulatory activity in PBMC (unknown origin) assessed as reduction in LPS-induced IL-10 level by ELISA; format: functional; set-up: scale not given: the % may be the effect or the level left
[16] = Toxicity in methicillin resistant Staphylococcus aureus USA300 infected CD-1 mouse assessed as reduction in bacterial load at 0.25 mg/kg, ILES after 3 days; format: organism-based; settings: in vivo, other, 72 h, time 3 day
Staphylococcus aureus [17] = assay: Antibiofilm activity against methicillin-resistant Staphylococcus aureus SAP 0017 assessed as inhibition of CV-staining/biomass formation measured after overnight incubation by biofilm inhibition assay; format: functional
Staphylococcus aureus [18] = assay: Antibiofilm activity against methicillin-resistant Staphylococcus aureus SAP 0017 assessed as biofilm eradication concentration by Calgary biofilm device assay; format: functional
PBMC [19] = assay: as §1; format: functional
[20] = Toxicity in Staphylococcus epidermidis infected CD-1 mouse assessed as reduction in bacterial load at 0.25 mg/kg, ILES after 3 days; format: organism-based; settings: in vivo, other, 72 h, time 3 day
Staphylococcus aureus [21] = assay: Antibiofilm activity against methicillin-resistant Staphylococcus aureus USA300 LAC assessed as minimal biofilm eradication concentration required for complete inhibition of bacterial growth by Calgary biofilm device assay; format: functional, MRSA USA300 LAC
[22] = Cytotoxicity against PBMC (unknown origin) at 100 ug incubated for 24 hrs by lactate dehydrogenase assay; format: tissue-based; settings: dose 100 µg
Staphylococcus aureus [23] = assay: Antibiofilm activity against methicillin-resistant Staphylococcus aureus USA300 LAC assessed as rough surfaces sprinkled with debris at 16 ug/ml by scanning electron microscopy based assay; format: functional, organism-based; settings: MRSA USA300 LAC, dose 16.0 µg/ml
Staphylococcus aureus [24] = assay: Antibacterial activity against methicillin-resistant Staphylococcus aureus USA300 LAC assessed as measuring killing rate at 16 ug/ml measured with in 30 mins by time kill assay; format: functional, organism-based; settings: MRSA USA300 LAC, dose 16.0 µg/ml
[25] = tested on: Staphylococcus epidermidis; assay: Antibiofilm activity against Staphylococcus epidermidis ATCC14990 assessed as disruption of mature biofilms by TCC bacterial metabolic assay; format: functional
Staphylococcus aureus [26] = assay: Antibiofilm activity against methicillin-resistant Staphylococcus aureus USA300 LAC assessed as disruption of mature biofilms by TCC bacterial metabolic assay; format: functional, MRSA USA300 LAC
Staphylococcus aureus [27] = assay: Antibiofilm activity against methicillin-resistant Staphylococcus aureus SAP 0017 assessed as disruption of mature biofilms by TCC bacterial metabolic assay; format: functional
[28] = Toxicity in Staphylococcus epidermidis infected CD-1 mouse assessed as reduction in abscess size at 2.5 mg/kg, ILES after 3 days; format: organism-based; set-up: scale not given: the % may be the effect or the level left; settings: in vivo, other, 72 h, time 3 day
Staphylococcus aureus [29] = assay: Antibacterial activity against methicillin resistant Staphylococcus aureus USA300 LAC assessed as change in susceptibility at sub-MIC treated over 14 serial passages by resistance development assay; format: functional, organism-based; settings: MRSA USA300 LAC
Enterococcus faecium [30] = assay: Antibiofilm activity against Enterococcus faecium assessed as reduction in viable biofilm cell counts by TCC bacterial metabolic assay; format: functional, organism-based
Staphylococcus aureus [31] = assay: Antimicrobial activity against methicillin resistant Staphylococcus aureus in N/TERT-based epidermal model assessed as reduction in bacterial count in epidermis; format: functional, organism-based
[32] = Toxicity in methicillin resistant Staphylococcus aureus USA300 infected CD-1 mouse assessed as reduction in bacterial load at 2.5 mg/kg, ILES after 3 days; format: organism-based; settings: in vivo, other, 72 h, time 3 day
PBMC [33] = assay: Immunomodulatory activity in PBMC (unknown origin) assessed as increase in MCP-1 production level at 12.5 ug/ml incubated for 24 hrs by ELISA; format: functional, tissue-based; settings: dose 12.5 µg/ml

Structure (SMILES)	MBEC [2] [µg/mL]	MIC (Staphylococcus aureus [3]) [µg/mL]	MIC (Enterococcus faecium [4]) [µg/mL]	Activity (Staphylococcus aureus [5]) [%]	MBIC (Enterococcus faecium [6]) [µg/mL]	MBIC [7] [µg/mL]	Activity (Staphylococcus aureus [8])	MIC [9] [µg/mL]	Activity [10] [%]	Activity (Staphylococcus aureus [11])	MBEC (Enterococcus faecium [12]) [µg/mL]	MIC (Staphylococcus aureus [13]) [µg/mL]	MBIC (Staphylococcus aureus [14]) [µg/mL]	Activity [15] [%]	MBIC (Staphylococcus aureus [17]) [µg/mL]	MBEC (Staphylococcus aureus [18]) [µg/mL]	MBEC (Staphylococcus aureus [21]) [µg/mL]	further results
CC[C@H](C)[C@H](NC(=O)[C@H](CCCNC(=N)N)NC(=O)[C@@H](NC(=O)[C@H](C)NC(=O)[C@@H](NC(=O)[C@@H](NC(=O)[C@H](CC(C)C)NC(=O)[C@H](CCCNC(=N)N)NC(=O)[C@@H](N)C(C)C)[C@@H](C)CC)C(C)C)C(C)C)C(=O)N[C@@H](Cc1c[nH]c2ccccc12)C(=O)N[C@@H](CCCNC(=N)N)C(=O)N[C@@H](CCCNC(=N)N)C(N)=O (H-VRLIVAVRIWRR-NH2)	16	16 (≈ 10.4 µM)	> 64	>75	>64	16	Active	16 (≈ 10.4 µM)	40	inactive	>128	16 (≈ 10.4 µM)	–	–	–	–	–	fold change (FC) [1]: > 1000
CN[C@H](CC(C)C)C(=O)N[C@H]1C(=O)N[C@@H](CC(N)=O)C(=O)N[C@H]2C(=O)N[C@H]3C(=O)N[C@H](C(=O)N[C@H](C(=O)O)c4cc(O)cc(O)c4-c4cc3ccc4O)[C@H](O)c3ccc(c(Cl)c3)Oc3cc2cc(c3O[C@@H]2O[C@H](CO)[C@@H](O)[C@H](O)[C@H]2O[C@H]2C[C@](C)(N)[C@H](O)[C@H](C)O2)Oc2ccc(cc2Cl)[C@H]1O [VANCOMYCIN]	>128	–	> 128	<25	>128	2	Active	–	–	inactive	>128	–	2	5	2	>128	>128	Activity [16]: Non-Toxic; Activity (PBMC [19]): inactive; Activity [20]: Non-Toxic
CC[C@H](C)[C@H](NC(=O)[C@H](CCCNC(=N)N)NC(=O)[C@@H](NC(=O)[C@H](C)NC(=O)[C@@H](NC(=O)[C@@H](NC(=O)[C@H](CC(C)C)NC(=O)[C@H](CCCNC(=N)N)NC(=O)[C@@H](NC(=O)[C@H]1NC(=O)[C@H]2NC(=O)[C@H](NC(=O)[C@@H]3NC(=O)[C@H](CC(N)=O)NC(=O)[C@H](NC(=O)[C@@H](CC(C)C)NC)[C@H](O)c4ccc(c(Cl)c4)Oc4cc3cc(c4O[C@@H]3O[C@H](CO)[C@@H](O)[C@H](O)[C@H]3O[C@H]3C[C@](C)(N)[C@H](O)[C@H](C)O3)Oc3ccc(cc3Cl)[C@H]2O)c2ccc(O)c(c2)-c2c(O)cc(O)cc21)C(C)C)[C@@H](C)CC)C(C)C)C(C)C)C(=O)N[C@@H](Cc1c[nH]c2ccccc12)C(=O)N[C@@H](CCCNC(=N)N)C(=O)N[C@@H](CCCNC(=N)N)C(N)=O	8	4 (≈ 1.35 µM)	32 (≈ 10.8 µM)	>90	32	8	Active	4 (≈ 1.35 µM)	40	Active	64	4 (≈ 1.35 µM)	4	40	4	8	8	Activity [22]: Non-Toxic; Activity (Staphylococcus aureus [23]): Active; Activity [1]: Non-Toxic; Activity (Staphylococcus aureus [24]): Active; Activity [25]: 80%; Activity (Staphylococcus aureus [26]): 80%; Activity (Staphylococcus aureus [27]): 80%; Activity [28]: 90%; Activity (Staphylococcus aureus [29]): inactive; Activity (Enterococcus faecium [30]): inactive; Activity (Staphylococcus aureus [31]): Active; Activity [32]: Non-Toxic; Activity (PBMC [33]): Active
CCCCCCCCCCCCCCCC[N+](C)(C)Cc1ccccc1.[Cl-] [CETALKONIUM CHLORIDE]	16	2	> 64	–	>64	4	–	4	–	–	>128	2	4	–	4	–	8	–
